Data taken from US6642003B2, “Human glucose-dependent insulin-secreting cell line” (Cedars-Sinai Medical Center, priority 2001, dated 2003).

How the values were obtained:
ARIP cells = assay: RT-PCR of islet β-cell specific transcripts, ARIP cells; assay type: cell-based, rat
Experimental: After the treatment of ARIP and PANC-1 cells with GLP-1, Exendin-9, or vehicle, for the described length of time and the various doses, the culture medium was removed and the cells were washed (twice) with serum-free medium. Total RNA was isolated using the TRiazol-method (Gibco-BRL), and treated with DNase (Amplification Grade, GibcoBRL) in 20 mmol/l Tris-HCL (pH 8.4), 2 mmol/l MgCl2, and 50 mmol/l KCl to remove any traces of contaminating genomic DNA. RNA (2.5 μg) was then subjected to reverse transcription (RT reagents; Promega; Madison, Wis.). RT-PCR was undertaken in a volume of 50 μl of buffer containing 50 mmol/l KCl, 10 mmol/l Tris-HCl, 3.5 mmol/l MgCl2, 200 μmol/l each dNTPs, and 0.4 μmol/l each of sense and antisense primers to rat or human insulin (depending on the specific cell from which the RNA was extracted). Amplification was performed for 30 cycles at the denaturing temperature of 94° C. for 1 min, annealing temperature of 60° C. for 45 sec, and an extension temperature of 72° C. for 1 min. […] These included more irregular and variable cell shapes, with a cytoplasm less homogenous and “rougher” in appearance than control culture.
Treatment with GLP-1 induces the differentiation of ductal epithelial cells into insulin-producing cells. FIG. 2 illustrates a series of cell cultures grown with or without GLP-1 (10 nM) for 72 h. […] Preabsorption of the antibody with an excess of human recombinant insulin prevented the staining of insulin-positive GLP-1 treated cells (data not shown). While treatment with GLP-1 turned the majority of ARIP cells into […] For β-actin, the annealing temperature was raised to 64° C. for 1 min and gene-specific primers were used. For GLP-1-receptor (GLP-R) the annealing temperature used was 55° C. All other experimental conditions to amplify GLUT2, glucokinase, and GLP-R mRNAs were identical to those described for the amplification of insulin mRNA. RT and PCR conditions for human transcripts were identical to those described for rat mRNAs.
Southern blotting with species-specific full length cDNA probes for insulin, GLUT-2, glucokinase, GLP-1 receptor and β-actin was performed as previously described. Y. Wang, R. Perfetti, N. H. Greig, H. W. Holloway, K. A. DeOre, C. Montrose-Rafizadeh, D. Elahi, J. M. Egan, “Glucagon-like peptide-1 can reverse the age-related decline in glucose tolerance in rats.” J Clin Invest 99:2883-2889, 1997.

PANC-1 cells [1] = assay: Immunofluorescence for IDX-1, parental PANC-1 cells; assay type: cell-based, human; conditions: vehicle alone or GLP-1
Experimental: Cells were cultured on monocoated chamber slides (Nalge Nunc International; Naperville, Ill.) in the presence of GLP-1 (10 nM), or vehicle, for 72 h.
For the detection of IDX-1, slightly different conditions were used. Briefly: the concentration of paraformaldehyde was decreased to 2%, and the concentration of Triton to permeabilize the cells was raised to 0.2% Triton-X-100. Cells were then washed with 0.01 M PBS three times for 3-5 min, and non-specific binding was inhibited by using 5% chick serum in 0.01 M PBS, at room temperature for 60 min in a humid chamber. A rabbit IDX-1 antibody directed against the N-terminus of the frog homologue of the IDX-1 gene was used as the primary antibody (1:500 diluted with 0.1% Triton-X 100, 1% BSA in 0.01 M PBS), and slides were incubated at 4° C. overnight in a humid chamber. After washing, cells were incubated with a fluorescein-conjugated goat anti-rabbit IgG antibody (Molecular Probes, Inc. Eugene, Oreg.) and incubated at room temperature for 1 hour in a humid chamber. Nuclei of cells stained with anti-IDX-1 antibody were visualized with Hoechst […] dye (Sigma, St. Louis, Mo.). The percentage of IDX-1 containing cells was evaluated by counting the number of IDX-1 “positive” cells divided by the total number of cells identified by nuclear staining.

PANC-1 cells [2] = assay: Insulin release into culture medium (RIA), parental PANC-1 cells; assay type: cell-based, human
Experimental: Rat (ARIP) and human (PANC-1) ductal cell lines were respectively a gift from Dr. J. M. Egan (National Institute on Aging, Baltimore, Md.) or purchased from ATCC (American Type Culture Collection; Manassas, Va.). ARIP cells were cultured in F12 medium (Gibco-BRL, Gaithersburg; Md.) containing 100 μg/ml penicillin, 50 μg/ml streptomycin and 10% fetal calf serum (FCS; Gibco-BRL) at 37° C. under a humidified condition of 95% air and 5% CO2. PANC-1 cells were cultured in DMEM medium supplemented with antibiotics and FCS, as indicated for F12 medium. […]
PANC-1 (parental, IDX-1-transfected, and neomycin-transfected) cells and ARIP (only parental) cells were plated at density of 10^6 cells/well in a 6 well plate. […] Glucose-dependent insulin secretion was evaluated by culturing the cells in the presence of a determined concentration of GLP-1 (10 nM for 72 h) with increasing concentration of glucose in the culture medium ([…]). Insulin released into the medium was measured by RIA (Linco Research Inc.; St. Charles, Mass.). […]
Total cellular protein content was measured by utilizing the Bradford method (Bio-Rad; Richmond, Calif.). The amount of proteins measured was used as a correction factor for determining the relative amount of medium to be assayed for each individual RIA for insulin.

For glucagon-like peptide-1 [GLP-1], the “time of first detection of GLUT2 mRNA” value (ARIP cells; GLP-1 10 nM) was 24 h, the “time of first detection of glucokinase mRNA” value (ARIP cells; GLP-1 10 nM) was 72 h and the “time of first detection of insulin mRNA” value (ARIP cells; GLP-1 10 nM) was 48 h. The “lowest concentration of GLP-1 required for the initial detection of insulin mRNA” value (ARIP cells; data not shown) was 1 nM, the IDX-1 staining (PANC-1 cells [1]) was “No positive IDX-1 staining” and the “insulin secretion in response to GLP-1” value (PANC-1 cells [2]; parental PANC-1, 12 mM glucose, various GLP-1 concentrations) was “did not secrete insulin”. For the same substance, the “insulin secretory response with increasing glucose” value (PANC-1 cells [2]; wild-type PANC-1, GLP-1 10 nM for 72 h, data not shown) was “No insulin secretory response”.
